The numbers were not newly measured in patent US20210319872A1, “DRUG AND DEVICE COMBINATION PRODUCTS WITH IMPROVED SAFETY AND EFFICACY PROFILES” (priority 2016, published 2021), which cites them from elsewhere.

Read-outs that look alike come from different tables or passages of the source.

Regarding `CC(C)(C)NC[C@H](O)COc1nsnc1N1CCOCC1` [Timolol (Blocadren)], under “in vivo”, the “Burning sensation in eye” value was “sensation in eye (Ophthalmic, 12.5% to 20%), Dry eyes”; the Cardiac dysrhythmia result was “Cardiovascular: Cardiac dysrhythmia (1%), Myocardial infarction”; the Confusion result is reported as “Neurologic: Confusion (13%), Dizziness (2.3% to 6%, oral),”; the Depression result is on record as “Psychiatric: Depression (9.2%, ophthalmic), Hallucinations (11%),”. For the same compound, where the note is “in vivo”, the Hallucinations result is “Psychiatric: Depression (9.2%, ophthalmic), Hallucinations (11%),”; the Headache result is on record as “Headache (1.7%, oral; 1% to 5%, ophthalmic)”; the Psychotic disorder result is “Psychotic disorder (3%)”; the “Serious side effects, listed without incidence or only as rare” value is given as “Cardiovascular: Cardiac dysrhythmia (1%), Myocardial infarction”. Where the note is “in vivo, po”, the Bradyarrhythmia entry is “Cardiovascular: Angina, Bradyarrhythmia (5% to 9.1%, oral),”; the Bronchospasm entry is recorded as “Respiratory: Bronchospasm (0.6%, oral)”; the Dizziness result is “Neurologic: Confusion (13%), Dizziness (2.3% to 6%, oral),”; the Dyspnea result is reported as “Respiratory: Cough, Dyspnea (1.7%, oral)”. Besides, for the setting “in vivo, po”, the Fatigue result is “Other: Fatigue (3.4% to 5%, oral), Infectious disease”; the Headache entry is “Headache (1.7%, oral; 1% to 5%, ophthalmic)”; the Heart failure entry is given as “Heart failure (8%, oral), Hypotension”.
As to `Nc1ccncc1` [Ampyra], for the setting “in vivo”, the Abdominal pain result was “Gastrointestinal: Abdominal pain (7%), Nausea (7% to 13%),”; the Abnormal gait entry is on record as “Musculoskeletal: Abnormal gait (5%), Backache (5%)”; the Anxiety entry is recorded as “Psychiatric: Anxiety (5%)”; the Asthenia entry is reported as “Neurologic: Asthenia (7%), Dizziness (7%), Headache (7%),”. Under “in vivo”, the Backache result is reported as “Musculoskeletal: Abnormal gait (5%), Backache (5%)”; the Dizziness entry is on record as “Neurologic: Asthenia (7%), Dizziness (7%), Headache (7%),”; the Headache result is “Neurologic: Asthenia (7%), Dizziness (7%), Headache (7%),”; the Insomnia entry is listed as “Insomnia (9%)”. Besides, for the setting “in vivo”, the Nausea entry is recorded as “Gastrointestinal: Abdominal pain (7%), Nausea (7% to 13%),”; the “Serious side effect, Immunologic” value was “Immunologic: Anaphylaxis, Hypersensitivity reaction”; the “Serious side effect, Neurologic” value is “Neurologic: Seizure”; the “Urinary tract infectious disease” value is given as “Renal: Urinary tract infectious disease (12%)”. Further, where the note is “in vivo”, the Vomiting result is “Vomiting (13%)”.
Consider `COCCc1ccc(OCC(O)CNC(C)C)cc1` (stereo not shown) [Metoprolol (Lopressor, Toprol XL)], for which, under “in vivo”, the Bradyarrhythmia entry is listed as “Cardiovascular: Bradyarrhythmia (3%), Cold extremities (1%),”; the Bronchospasm entry is on record as “Respiratory: Bronchospasm (1%)”; the Cold extremities entry is recorded as “Cardiovascular: Bradyarrhythmia (3%), Cold extremities (1%),”; the “Common side effects, listed without incidence” value is “Neurologic: Dizziness (10%), Fatigue (10%), Headache”. For the setting “in vivo”, the Constipation result is given as “Gastrointestinal: Constipation (1%), Diarrhea (5%), Indigestion”; the Depression entry is listed as “Psychiatric: Depression (5%)”; the Diarrhea result is reported as “Gastrointestinal: Constipation (1%), Diarrhea (5%), Indigestion”; the Dizziness result is recorded as “Neurologic: Dizziness (10%), Fatigue (10%), Headache”. Under “in vivo”, the Dyspnea entry was “Respiratory: Dyspnea (3%), Wheezing (1%)”; the Fatigue entry is reported as “Neurologic: Dizziness (10%), Fatigue (10%), Headache”; the Heart failure entry was “Heart failure (1%), Hypotension (1%)”; the Hypotension entry was “Heart failure (1%), Hypotension (1%)”. Where the note is “in vivo”, the Indigestion result is reported as “(1%), Nausea (1%)”; the Nausea entry is “(1%), Nausea (1%)”; the Pruritus result is “Dermatologic: Pruritus (5%), Rash (5%)”; the Rash entry was “Dermatologic: Pruritus (5%), Rash (5%)”. Besides, the Wheezing result (in vivo) was “Respiratory: Dyspnea (3%), Wheezing (1%)”.
For `Clc1ccccc1CN1CCc2sccc2C1` [Ticlopidine], for the setting “in vivo”, the Neutropenia is 2.4%.
With `CN1CC[C@]23c4c5ccc(O)c4O[C@H]2[C@@H](O)C=C[C@H]3[C@H]1C5` [morphine, reference compound], the “Drowsiness or Sedation” value (in vivo) was “severe sedation and drowsiness”.
For the compound `CCC(=O)O[C@@H](O[P@](=O)(CCCCc1ccccc1)CC(=O)N1C[C@H](C2CCCCC2)C[C@H]1C(=O)O)C(C)C` [Fosinopril (Monopril)], under “in vivo”, the Cough entry is “Respiratory: Cough (2.2% to 9.7%)”, the Dizziness entry is “Neurologic: Dizziness (1.6% to 11.9%)”, the Hyperkalemia result was “Endocrine metabolic: Hyperkalemia (2.6%)” and the Hypotension result is “Cardiovascular: Hypotension (2.4% to 4.4%)”. For the same compound, for the setting “in vivo”, the Nausea and vomiting result is “Gastrointestinal: Nausea and vomiting (1.2% to 2.2%)”.
Regarding `Nc1nnc(-c2cccc(Cl)c2Cl)c(N)n1` [Lamictal XR], where the note is “extended-release”, the Anxiety was 3%, the Asthenia is listed as 6%, the Blurred vision is listed as 3% and the Coordination problem was 3%. For the same compound, under “extended-release”, the Depression is listed as 3%; the Diarrhea is 5%; the Diplopia result is on record as “extended-release, 5%)”; the Dizziness is reported as 14%. Further, where the note is “extended-release”, the Nausea is 7%; the Somnolence is 5%; the Tremor was 6%; the Vertigo entry is recorded as “release, 3%)”. Further, the Vomiting (extended-release) was 6%. For the same compound, where the note is “immediate release”, the Anemia entry is “Hematologic: Anemia (immediate release, less than 0.1%),”; the Eosinophilia is less than 0.1%; the Thrombocytopenia is listed as < 1%), Thrombocytopenia (immediate release, less than 0.1%). Under “immediate-release”, the Anxiety result is “Psychiatric: Anxiety (immediate-release, 4%; extended-release,”; the Depression is reported as 4%; the Headache result is “Headache (immediate-release, 29%), Insomnia (immediate-release,”; the Pain result is “Other: Pain (immediate-release, 5%)”. Also, the Vertigo (immediate-release) is recorded as 2%. Further, where the note is “immediate-release, children”, the Blurred vision is 4% and the Diplopia is listed as 5%. For the same compound, where the note is “in vivo”, the Angioedema is less than 0.1% and the Erythema multiforme result was “Dermatologic: Erythema multiforme (less than 0.1%), Rash,”. Moreover, for the setting “listed without frequency”, the “Serious side effect, Hematologic” value is on record as “Disseminated intravascular coagulation, Eosinophilia (immediate”; the “Serious side effect, Hepatic” value was “Hepatic: Liver failure”; the “Serious side effect, Immunologic” value is reported as “Immunologic: Drug hypersensitivity syndrome”; the “Serious side effect, Neurologic” value is listed as “Neurologic: Aseptic meningitis”.
As for `COc1ccc([C@@H]2Sc3ccccc3N(CCN(C)C)C(=O)[C@@H]2OC(C)=O)cc1` [Diltiazem (Cardizem, Tiazac)], under “in vivo”, the Bradyarrhythmia result is recorded as “Cardiovascular: Bradyarrhythmia (1.7% to 3.6%), Peripheral”; the Congestive heart failure entry was “Cardiovascular: Congestive heart failure (less than 2%), Heart”; the Cough entry is “Respiratory: Cough (2%)”; the Dizziness result was “Neurologic: Dizziness (3.5% to 6.4%), Headache (4.6%)”. Moreover, where the note is “in vivo”, the Fatigue result is reported as “Other: Fatigue (4.8%)”; the Headache entry is on record as “Neurologic: Dizziness (3.5% to 6.4%), Headache (4.6%)”; the Peripheral edema entry is recorded as “edema (4.6% to 8%)”.
Regarding `CN(C)CCCC1(c2ccc(F)cc2)OCc2cc(C#N)ccc21` (stereo not shown) [Citalopram (Celexa)], for the setting “in vivo”, the Agitation result is reported as “Psychiatric: Agitation (3% to 10%)”; the Cerebrovascular accident entry was “Neurologic: Cerebrovascular accident (0.1% to less than 1%)”; the Constipation result is listed as “Gastrointestinal: Constipation (13%), Diarrhea (8%), Nausea (20%”; the Diaphoresis entry is given as “Dermatologic: Diaphoresis (5% to 18%)”. Further, under “in vivo”, the Diarrhea entry is “Gastrointestinal: Constipation (13%), Diarrhea (8%), Nausea (20%”; the Disorder of ejaculation entry was “Reproductive: Disorder of ejaculation (6.1%)”; the Dizziness result is “Neurologic: Dizziness (14%), Headache (18%), Insomnia (15%),”; the Fatigue result is “Other: Fatigue (5%)”. Also, under “in vivo”, the Headache result is reported as “Neurologic: Dizziness (14%), Headache (18%), Insomnia (15%),”; the Insomnia entry is “Neurologic: Dizziness (14%), Headache (18%), Insomnia (15%),”; the Myocardial infarction result is “Cardiovascular: Myocardial infarction (0.1% to 1%), Prolonged QT”; the Nausea entry was “Gastrointestinal: Constipation (13%), Diarrhea (8%), Nausea (20%”. In addition, where the note is “in vivo”, the “Prolonged QT interval” value is on record as “interval (0.5% to 1.9%), Torsades de pointes”; the Sedated result is “Sedated (15%), Somnolence (18%), Tremor (8% to 16%)”; the Somnolence result was “Sedated (15%), Somnolence (18%), Tremor (8% to 16%)”; the Tremor result was “Sedated (15%), Somnolence (18%), Tremor (8% to 16%)”. For the setting “in vivo”, the Vomiting result was “to 21%), Vomiting (4% to 20%), Xerostomia (17% to 20%)” and the Xerostomia entry is reported as “to 21%), Vomiting (4% to 20%), Xerostomia (17% to 20%)”.
With `CCOc1nc2cccc(C(=O)O)c2n1Cc1ccc(-c2ccccc2-c2nnn[nH]2)cc1` [Candesartan (Atacand)], where the note is “in vivo”, the Backache entry was “Musculoskeletal: Backache (3%.)”; the Dizziness result was “Neurologic: Dizziness (less than 5%)”; the Hypotension result is on record as “Cardiovascular: Hypotension (18.8%)”; the Pharyngitis result is reported as “Respiratory: Pharyngitis (2%), Rhinitis (2%), Upper respiratory”. Where the note is “in vivo”, the Rhinitis entry is given as “Respiratory: Pharyngitis (2%), Rhinitis (2%), Upper respiratory” and the Upper respiratory infection entry is listed as “infection (6%)”.
`Cl.O=C1[C@@H]2[C@H]3CC[C@H](C3)[C@@H]2C(=O)N1C[C@@H]1CCCC[C@H]1CN1CCN(c2nsc3ccccc23)CC1` [Latuda]: under “in vivo”, the Akathisia entry is reported as “Neurologic: Akathisia (5.6% to 22%), Extrapyramidal disease”; the Anxiety result is “Psychiatric: Anxiety (4% to 5%)”; the Cerebrovascular accident result was “Neurologic: Cerebrovascular accident (0.1% to 1%), Seizure (less”; the Diarrhea entry is given as “Gastrointestinal: Diarrhea (3% to 5%), Nausea (10% to 17%),”. For the setting “in vivo”, the Nausea entry is given as “Gastrointestinal: Diarrhea (3% to 5%), Nausea (10% to 17%),”; the Orthostatic hypotension result was “Cardiovascular: Orthostatic hypotension (0.3% to 2.1%), Syncope”; the “Serious side effect, Hematologic” value was “Hematologic: Agranulocytosis”; the “Serious side effect, Other” value was “Other: Neuroleptic malignant syndrome”. In addition, under “in vivo”, the Serum creatinine raised entry is “Renal: Serum creatinine raised (2% to 4%)”, the Suicidal thoughts entry is “Psychiatric: Suicidal thoughts (0.4% to 1.1%)”, the Syncope entry was “(0.1%)” and the Vomiting entry is on record as “Vomiting (2% to 8%)”.
